{"source": "ChEMBL document CHEMBL4334449", "about": "“Jorunnamycin A from Xestospongia sp. Suppresses Epithelial to Mesenchymal Transition and Sensitizes Anoikis in Human Lung Cancer Cells” (J Nat Prod, 2019)", "key": {"NCI-H23 [1]": {"system": "NCI-H23", "test": "Inhibition of epithelial-mesenchymal transition in human H23 cells harboring with p53 mutant under detachment conditions assessed as decrease in vimentin protein level 0.05 to 0.5 uM after 12 hrs by Western blot analysis", "type": "functional, cell-based"}, "NCI-H292 [2]": {"system": "NCI-H292", "test": "Induction of apoptosis in human NCI-H292 cells under detachment conditions assessed as viable cells at 0.5 uM after 24 hrs by Annexin V-FITC/propidium iodide staining-based flow cytometric analysis (reference value: 40.55%)", "type": "functional", "conditions": "NCI-H292, 24 h, read-out: Activity"}, "NCI-H460 [3]": {"system": "NCI-H460", "test": "Induction of anoikis in human H460 cells under detachment conditions after 12 hrs by Western blot analysis", "type": "functional, cell-based"}, "NCI-H460 [4]": {"system": "NCI-H460", "test": "Induction of apoptosis in human H460 cells under detachment conditions assessed as early apoptotic cells at 0.5 uM after 24 hrs by Annexin V-FITC/propidium iodide staining-based flow cytometric analysis (reference value: 22.55%)", "type": "functional"}, "NCI-H460 [5]": {"system": "NCI-H460", "test": "Inhibition of colony formation in human H460 cells under detachment conditions assessed as reduction in number of colonies at 0.1 to 0.5 uM after 14 days by microscopic method", "type": "functional, cell-based"}, "NCI-H23 [6]": {"system": "NCI-H23", "test": "Inhibition of colony formation in human H23 cells under detachment conditions assessed as reduction in number of colonies at 0.1 to 0.5 uM after 14 days by microscopic method", "type": "functional, cell-based"}, "NCI-H460 [7]": {"system": "NCI-H460", "test": "Induction of apoptosis in human H460 cells assessed as accumulation of necrotic cells at 0.05 to 1 uM after 24 hrs by Hoechst 33342/propidium iodide staining based fluorescent microscopic method", "type": "functional, cell-based"}, "NCI-H460 [8]": {"system": "NCI-H460", "test": "Induction of apoptosis in human H460 cells at 0.05 to 0.5 uM after 24 hrs by Hoechst 33342/propidium iodide staining based fluorescent microscopic method", "type": "functional, cell-based"}, "NCI-H292 [9]": {"system": "NCI-H292", "test": "Antiproliferative activity against human NCI-H292 cells under detachment conditions assessed as reduction in cell viability at 0.05 to 0.5 uM up to 24 hrs by XTT assay", "type": "functional, cell-based"}, "Homo sapiens": {"species_on_record": "Homo sapiens", "test": "Inhibition of ERK phosphorylation in human H460 cells under detachment conditions at 0.05 to 0.5 uM after 12 hrs by Western blot analysis", "type": "cell-based"}, "NCI-H23 [10]": {"system": "NCI-H23", "test": "Induction of apoptosis in human H23 cells under detachment conditions assessed as late apoptotic cells at 0.5 uM after 24 hrs by Annexin V-FITC/propidium iodide staining-based flow cytometric analysis (reference value: 2.82%)", "type": "functional"}, "NCI-H292 [11]": {"system": "NCI-H292", "test": "Induction of apoptosis in human NCI-H292 cells under detachment conditions assessed as late apoptotic cells at 0.5 uM after 24 hrs by Annexin V-FITC/propidium iodide staining-based flow cytometric analysis (reference value: 28.21%)", "type": "functional"}, "NCI-H460 [12]": {"system": "NCI-H460", "test": "Induction of anoikis in human H460 cells under detachment conditions assessed as increase in Bax level at 0.05 to 0.5 uM after 12 hrs by Western blot analysis", "type": "functional, cell-based"}, "NCI-H23 [13]": {"system": "NCI-H23", "test": "Inhibition of epithelial-mesenchymal transition in human H23 cells harboring with p53 mutant under detachment conditions assessed as decrease in snail protein level 0.05 to 0.5 uM after 12 hrs by Western blot analysis", "type": "functional, cell-based"}, "NCI-H460 [14]": {"system": "NCI-H460", "test": "Inhibition of epithelial-mesenchymal transition in human H460 cells under detachment conditions assessed as decrease in vimentin protein level 0.05 to 0.5 uM after 12 hrs by Western blot analysis", "type": "functional, cell-based"}, "NCI-H23 [15]": {"system": "NCI-H23", "test": "Induction of anoikis in human H23 cells harboring with p53 mutant under detachment conditions assessed as effect on Bax level at 0.05 to 0.5 uM after 12 hrs by Western blot analysis", "type": "functional, cell-based"}, "NCI-H292 [16]": {"system": "NCI-H292", "test": "Antiproliferative activity against human NCI-H292 cells assessed as reduction in cell viability at 0.05 to 0.5 uM", "type": "functional, cell-based"}, "NCI-H23 [17]": {"system": "NCI-H23", "test": "Inhibition of colony formation in human H23 cells under detachment conditions assessed as reduction in size of colonies at 0.1 to 0.5 uM after 14 days by microscopic method", "type": "functional, cell-based"}, "NCI-H460 [18]": {"system": "NCI-H460", "test": "Effect on total AKT protein level in human H460 cells under detachment conditions at 0.05 to 0.5 uM after 12 hrs by Western blot analysis", "type": "ADME, cell-based", "conditions": "nci-h460, 12 h"}, "NCI-H23 [19]": {"system": "NCI-H23", "test": "Induction of anoikis in human H23 cells harboring with p53 mutant under detachment conditions assessed as effect on P53 level at 0.05 to 0.5 uM after 12 hrs by Western blot analysis", "type": "functional, cell-based"}, "NCI-H460 [20]": {"system": "NCI-H460", "test": "Inhibition of epithelial-mesenchymal transition in human H460 cells under detachment conditions assessed as decrease in snail protein level 0.05 to 0.5 uM after 12 hrs by Western blot analysis", "type": "functional, cell-based"}, "NCI-H23 [21]": {"system": "NCI-H23", "test": "Induction of anoikis in human H23 cells under detachment conditions assessed as reduction in cell viability at 0.05 uM up to 24 hrs by XTT assay", "type": "functional, cell-based"}, "NCI-H460 [22]": {"system": "NCI-H460", "test": "Antiproliferative activity against human H460 cells assessed as reduction in cell viability at 0.05 to 0.5 uM after 24 hrs by MTT assay", "type": "functional, cell-based"}, "NCI-H460 [23]": {"system": "NCI-H460", "test": "Induction of apoptosis in human H460 cells at 1 uM after 24 hrs by Hoechst 33342/propidium iodide staining based fluorescent microscopic method", "type": "functional, cell-based"}, "NCI-H23 [24]": {"system": "NCI-H23", "test": "Induction of apoptosis in human H23 cells under detachment conditions assessed as early apoptotic cells at 0.5 uM after 24 hrs by Annexin V-FITC/propidium iodide staining-based flow cytometric analysis (reference value: 26.81%)", "type": "functional"}, "NCI-H460 [25]": {"system": "NCI-H460", "test": "Antiproliferative activity against human H460 cells under detachment conditions assessed as reduction in cell viability at 0.05 uM after 6 hrs by XTT assay", "type": "functional, cell-based"}, "NCI-H23 [26]": {"system": "NCI-H23", "test": "Induction of apoptosis in human H23 cells under detachment conditions assessed as viable cells at 0.5 uM after 24 hrs by Annexin V-FITC/propidium iodide staining-based flow cytometric analysis (reference value: 69.96%)", "type": "functional", "conditions": "NCI-H23, 24 h, read-out: Activity"}, "NCI-H460 [27]": {"system": "NCI-H460", "test": "Effect on total ERK protein level in human H460 cells under detachment conditions at 0.05 to 0.5 uM after 12 hrs by Western blot analysis", "type": "ADME, cell-based", "conditions": "nci-h460, 12 h"}, "NCI-H23 [28]": {"system": "NCI-H23", "test": "Inhibition of epithelial-mesenchymal transition in human H23 cells harboring with p53 mutant under detachment conditions assessed as increase in E-cadherin protein level 0.05 to 0.5 uM after 12 hrs by Western blot analysis", "type": "functional, cell-based"}, "NCI-H460 [29]": {"system": "NCI-H460", "test": "Inhibition of colony formation in human H460 cells under detachment conditions assessed as reduction in size of colonies at 0.1 to 0.5 uM after 14 days by microscopic method", "type": "functional, cell-based"}}, "note": "Activity calls are given as the source filed them. No cut-off for these calls is given here.", "data": [{"smiles": "COC1=C(C)C(=O)C2=C(C1=O)[C@@H]1[C@@H]3CC4=C(C(=O)C(OC)=C(C)C4=O)[C@H](CO)N3[C@@H](C#N)[C@H](C2)N1C", "note": "[JOURNNAMYCIN A]", "values": [{"measurement": "inhibition", "setting": "NCI-H23 [1]", "value": "Active"}, {"measurement": "viability at 0.5 µM", "setting": "NCI-H292 [2]", "value": 25.8, "unit": "%"}, {"measurement": "Activity", "setting": "NCI-H460 [3]", "value": "Dose-dependent effect"}, {"measurement": "Activity", "setting": "NCI-H460 [4]", "value": 26.4, "unit": "%"}, {"measurement": "inhibition", "setting": "NCI-H460 [5]", "value": "Active"}, {"measurement": "inhibition", "setting": "NCI-H23 [6]", "value": "Active"}, {"measurement": "Activity", "setting": "NCI-H460 [7]", "value": "inactive"}, {"measurement": "Activity", "setting": "NCI-H460 [8]", "value": "inactive"}, {"measurement": "Activity", "setting": "NCI-H292 [9]", "value": "Active"}, {"measurement": "inhibition", "setting": "Homo sapiens", "value": "Active"}, {"measurement": "Activity", "setting": "NCI-H23 [10]", "value": 17.1, "unit": "%"}, {"measurement": "Activity", "setting": "NCI-H292 [11]", "value": 28.13, "unit": "%"}, {"measurement": "Activity", "setting": "NCI-H460 [12]", "value": "Active"}, {"measurement": "inhibition", "setting": "NCI-H23 [13]", "value": "Active"}, {"measurement": "inhibition", "setting": "NCI-H460 [14]", "value": "Active"}, {"measurement": "Activity", "setting": "NCI-H23 [15]", "value": "inactive"}, {"measurement": "Activity", "setting": "NCI-H292 [16]", "value": "inactive"}, {"measurement": "inhibition", "setting": "NCI-H23 [17]", "value": "Active"}, {"measurement": "Activity", "setting": "NCI-H460 [18]", "value": "Non-Toxic"}, {"measurement": "Activity", "setting": "NCI-H23 [19]", "value": "inactive"}, {"measurement": "inhibition", "setting": "NCI-H460 [20]", "value": "Active"}, {"measurement": "Activity", "setting": "NCI-H23 [21]", "value": "Active"}, {"measurement": "Activity", "setting": "NCI-H460 [22]", "value": "inactive"}, {"measurement": "Activity", "setting": "NCI-H460 [23]", "value": "Active"}, {"measurement": "Activity", "setting": "NCI-H23 [24]", "value": 37.79, "unit": "%"}, {"measurement": "Activity", "setting": "NCI-H460 [25]", "value": "Active"}, {"measurement": "viability at 0.5 µM", "setting": "NCI-H23 [26]", "value": 44.6, "unit": "%"}, {"measurement": "Activity", "setting": "NCI-H460 [27]", "value": "Non-Toxic"}, {"measurement": "inhibition", "setting": "NCI-H23 [28]", "value": "Active"}, {"measurement": "inhibition", "setting": "NCI-H460 [29]", "value": "Active"}]}]}
